Here are results for 53 molecules from ChEMBL document CHEMBL3875189, “A benzo[b]thiophene-based selective type 4 S1P receptor agonist” (Bioorg Med Chem Lett, 2017).

Assay [1] deals with T1, Sphingosine 1-phosphate receptor 5 (Homo sapiens, UniProt Q9H228). The experiment in a line: Agonist activity at recombinant human S1PR5 expressed in CHO cell membranes assessed as [35S]GTP-gammaS binding measured after 1.5 hrs by TopCount scintillation counting method relative to S1P.
Assay [2] concerns the target T2, Sphingosine 1-phosphate receptor 4 (Homo sapiens, UniProt O95977).
T2 sequence (O95977 whole entry): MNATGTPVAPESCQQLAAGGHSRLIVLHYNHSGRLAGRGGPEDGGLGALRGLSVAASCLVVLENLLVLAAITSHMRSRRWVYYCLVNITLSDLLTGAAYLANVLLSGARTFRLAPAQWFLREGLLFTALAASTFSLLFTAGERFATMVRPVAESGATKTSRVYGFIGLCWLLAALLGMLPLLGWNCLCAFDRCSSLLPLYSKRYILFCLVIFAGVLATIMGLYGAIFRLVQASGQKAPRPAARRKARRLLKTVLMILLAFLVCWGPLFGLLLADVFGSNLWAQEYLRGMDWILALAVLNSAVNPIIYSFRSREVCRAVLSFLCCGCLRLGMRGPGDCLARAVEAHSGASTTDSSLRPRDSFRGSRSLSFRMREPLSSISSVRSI
Briefly: Agonist activity at recombinant human S1PR4 expressed in CHO cell membranes assessed as [35S]GTP-gammaS binding measured after 1.5 hrs by TopCount scintillation counting method. A general note: Binding of GTPγS marks nucleotide exchange on a G protein.

Assay [3] has as its target T1, Sphingosine 1-phosphate receptor 5. Briefly: Agonist activity at recombinant human S1PR5 expressed in CHO cell membranes assessed as [35S]GTP-gammaS binding measured after 1.5 hrs by TopCount scintillation counting method.

T1 sequence (Q9H228 whole entry): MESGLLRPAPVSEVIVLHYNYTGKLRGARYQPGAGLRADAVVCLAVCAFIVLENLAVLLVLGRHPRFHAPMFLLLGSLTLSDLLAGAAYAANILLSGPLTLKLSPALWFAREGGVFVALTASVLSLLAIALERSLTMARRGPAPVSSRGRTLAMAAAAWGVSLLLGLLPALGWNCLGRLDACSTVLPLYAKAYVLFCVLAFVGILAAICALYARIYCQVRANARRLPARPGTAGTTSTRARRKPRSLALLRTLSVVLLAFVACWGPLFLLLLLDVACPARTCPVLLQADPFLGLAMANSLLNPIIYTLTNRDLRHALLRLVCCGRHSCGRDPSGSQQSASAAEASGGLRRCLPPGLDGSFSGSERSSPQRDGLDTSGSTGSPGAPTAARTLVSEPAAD

Turning to `O=C(O)CCCNCc1cc2cccc(-c3ccc(C(F)(F)F)cc3)c2s1`, the Efficacy in assay [1] worked out at 15%. The EC50 in assay [2] amounted to 1900 nM; in assay [3] it was 552 nM.
For `CCc1ccccc1-c1cccc2cc(CNCCC(=O)O)sc12` the same measures were 15%, above 100000 nM and 2590 nM.
As to `CCc1ccccc1-c1cccc2sc(CNCCC(=O)O)cc12`, the EC50 in assay [2] and in assay [3] was above 100000 nM each time.
Consider `CCc1ccccc1-c1cccc2cc(CNc3ccc(CC(=O)O)cc3)sc12`, for which, in assay [1], the Efficacy amounted to 20%. Moreover, the figures for the EC50 in assay [2] and in assay [3] were 3410 nM and 2100 nM, respectively.
For `O=C(O)CCCNCc1cc2cccc(-c3ccc(-c4ccccc4)cc3)c2s1` the same measures were 10%, 2060 nM and 6450 nM.
As to `O=C(O)CCCNCc1cc2cccc(-c3cccc(C(F)(F)F)c3)c2s1`, in assay [1], the Efficacy was determined as 39%. The EC50 in assay [2] was 693 nM; in assay [3], 3070 nM.
Turning to `CCc1ccccc1-c1cccc2cc(CNCC(=O)O)sc12`, the EC50 in assay [2] and in assay [3] was above 100000 nM throughout.
Take `O=C(O)Cc1ccc(NCc2cc3c(-c4ccc5ccccc5c4)cccc3s2)cc1`: the EC50 in assay [2] and in assay [3] was above 100000 nM each time.
As to `CCc1ccccc1-c1cccc2cc(CNCCCCC(=O)O)sc12`, in assay [1], the Efficacy is 16%. The concentration for a half-maximal effect (EC50) in assay [2] was above 100000 nM; in assay [3], 2490 nM.
For `O=C(O)CCNCc1cc2cc(-c3ccc4ccccc4c3)ccc2s1` the same measures were 78%, 38 nM and 25 nM.
With `CCc1ccccc1-c1cccc2sc(CNCC(C)C(=O)O)cc12` (stereo not drawn), the figures for the concentration for a half-maximal effect (EC50) in assay [2] and in assay [3] were 10300 nM and above 100000 nM, respectively.
For `CCc1ccccc1-c1cccc2sc(CNCCCCC(=O)O)cc12` the same measures were 11100 nM and above 100000 nM.
On to `Cc1cccc(-c2cccc3cc(CNCCCC(=O)O)sc23)c1`, for which the Efficacy in assay [1] was 25%. In addition, the EC50 is 9250 nM in assay [2] and 10300 nM in assay [3].
Turning to `O=C(O)CCCNCc1cc2cccc(-c3cccc(-c4ccccc4)c3)c2s1`, the Efficacy in assay [1] amounted to 18%. In addition, the EC50 worked out at 331 nM in assay [2] and 49 nM in assay [3].
Take `CCc1ccccc1-c1cccc2sc(CNCC(N)C(=O)O)cc12` (stereo not drawn): the EC50 in assay [2] was 57600 nM; in assay [3], above 100000 nM.
Consider `O=C(O)CCCNCc1cc2cccc(-c3ccc4c(c3)OCO4)c2s1`, for which the Efficacy in assay [1] worked out at 26%. For the same molecule, the concentration for a half-maximal effect (EC50) was 3920 nM in assay [2] and 3130 nM in assay [3].
Turning to `CCc1ccccc1-c1cccc2cc(CNCC(C)C(=O)O)sc12` (stereo not drawn), the Efficacy in assay [1] was determined as 10%. The EC50 in assay [2] was above 100000 nM; in assay [3], 4220 nM.
As to `CCc1ccccc1-c1cccc2cc(CN3CC(C(=O)O)C3)sc12`, the concentration giving a half-maximal response (EC50) in assay [2] and in assay [3] was above 100000 nM in each case.
For `CCc1ccccc1-c1cccc2cc(CNCc3ccc(C(=O)O)cc3)sc12`, the EC50 in assay [2] and in assay [3] was above 100000 nM in each case.
For the molecule `O=C(O)CNCc1cc2cccc(-c3ccc4ccccc4c3)c2s1`, the Efficacy in assay [1] came out at 32%. In addition, the 50% effective concentration (EC50) came out at 1480 nM in assay [2] and 272 nM in assay [3].
For `NC(CNCc1cc2c(-c3ccc4ccccc4c3)cccc2s1)C(=O)O` (stereo not drawn) the same measures were 34%, 1100 nM and 329 nM.
For `O=C(O)CCCCNCc1cc2cc(-c3ccc4ccccc4c3)ccc2s1` the same measures were 54%, 724 nM and 709 nM.
For `CCc1ccccc1-c1cccc2cc(CNCC(N)C(=O)O)sc12` (stereo not drawn) the same measures were 25%, 3100 nM and 1560 nM.
On to `O=C(O)CCNCc1cc2cccc(-c3ccc4ccccc4c3)c2s1`, for which the Efficacy in assay [1] was 36%. The EC50 came out at 187 nM in assay [2] and 280 nM in assay [3].
For `O=C(O)Cc1cccc(NCc2cc3cc(-c4ccc5ccccc5c4)ccc3s2)c1` the same measures were 12%, above 100000 nM and 769 nM.
In the case of `O=C(O)c1ccc(CNCc2cc3cc(-c4ccc5ccccc5c4)ccc3s2)cc1`, the EC50 in assay [2] and in assay [3] was above 100000 nM throughout.
Consider `CCc1ccccc1-c1cccc2cc(CNc3cccc(CC(=O)O)c3)sc12`, for which the Efficacy in assay [1] is 36%. Further, the EC50 in assay [2] stood at 1190 nM; in assay [3], 3970 nM.
For the molecule `CC(C)(C)c1ccc(-c2cccc3cc(CNCCCC(=O)O)sc23)cc1`, in assay [1], the Efficacy came to 26%. The values for the half-maximal effective concentration (EC50) in assay [2] and in assay [3] were 5070 nM and 4690 nM, respectively.
For `O=C(O)CNCc1cc2cc(-c3ccc4ccccc4c3)ccc2s1` the same measures were 63%, 350 nM and 350 nM.
For `CCc1ccccc1-c1cccc2sc(CN3CC(C(=O)O)C3)cc12` the same measures were 10%, above 100000 nM and 21200 nM.
With `O=C(O)CCCCNCc1cc2cccc(-c3ccc4ccccc4c3)c2s1`, the Efficacy in assay [1] was determined as 37%. In addition, the figures for the 50% effective concentration (EC50) in assay [2] and in assay [3] were 410 nM and 412 nM, respectively.
For `Cc1ccccc1-c1cccc2cc(CNCCCC(=O)O)sc12` the same measures were 7%, 13500 nM and 3540 nM.
For `CCc1ccccc1-c1cccc2sc(CNCCCC(=O)O)cc12`, the EC50 in assay [2] was 18300 nM; in assay [3] it was above 100000 nM.
For `CCc1ccccc1-c1cccc2sc(CNCC(=O)O)cc12` the same measures were above 100000 nM and above 100000 nM.
For `O=C(O)Cc1ccc(NCc2cc3cc(-c4ccc5ccccc5c4)ccc3s2)cc1` the same measures were above 100000 nM and above 100000 nM.
As to `CCc1ccccc1-c1cccc2sc(CNc3ccc(CC(=O)O)cc3)cc12`, the Efficacy in assay [1] was 9%. Also, the values for the EC50 in assay [2] and in assay [3] were 2570 nM and 4770 nM, respectively.
Turning to `O=C(O)CCCNCc1cc2cccc(-c3cccc4ccccc34)c2s1`, the Efficacy in assay [1] came out at 25%. For the same molecule, the concentration giving a half-maximal response (EC50) in assay [2] stood at 1980 nM; in assay [3], 2320 nM.
On to `NC(CNCc1cc2cc(-c3ccc4ccccc4c3)ccc2s1)C(=O)O` (stereo not drawn), for which, in assay [1], the Efficacy was 69%. Besides, the values for the concentration for a half-maximal effect (EC50) in assay [2] and in assay [3] were 541 nM and 728 nM, respectively.
For `O=C(O)Cc1ccc(NCc2cc3cccc(-c4ccc5ccccc5c4)c3s2)cc1` the same measures were 32%, 1430 nM and 4020 nM.
For `CCc1ccccc1-c1cccc2sc(CNCc3ccc(C(=O)O)cc3)cc12` the same measures were 11%, above 100000 nM and 6700 nM.
`CCc1ccccc1-c1cccc2cc(CNCCCC(=O)O)sc12`: the concentration for a half-maximal effect (EC50) in assay [2] and in assay [3] was above 100000 nM each time.
For `O=C(O)c1ccc(CNCc2cc3cccc(-c4ccc5ccccc5c4)c3s2)cc1`, the Efficacy in assay [1] turned out to be 23%. The values for the half-maximal effective concentration (EC50) in assay [2] and in assay [3] were above 100000 nM and 4510 nM, respectively.
In the case of `CC(CNCc1cc2cc(-c3ccc4ccccc4c3)ccc2s1)C(=O)O` (stereo not drawn), in assay [1], the Efficacy was 77%. Further, the EC50 came out at 115 nM in assay [2] and 232 nM in assay [3].
For `NC(CNCc1cc2cccc(-c3ccc4ccccc4c3)c2s1)C(=O)O` (stereo not drawn) the same measures were 35%, 694 nM and 1070 nM.
Turning to `CCc1ccccc1-c1cccc2sc(CNc3cccc(CC(=O)O)c3)cc12`, the concentration giving a half-maximal response (EC50) is 470 nM in assay [2] and above 100000 nM in assay [3].
Consider `O=C(O)C1CN(Cc2cc3cccc(-c4ccc5ccccc5c4)c3s2)C1`, for which the Efficacy in assay [1] amounted to 13%. For the same molecule, the EC50 is above 100000 nM in assay [2] and 506 nM in assay [3].
For `CC(CNCc1cc2cccc(-c3ccc4ccccc4c3)c2s1)C(=O)O` (stereo not drawn) the same measures were 32%, 1020 nM and 887 nM.
For `Cc1ccc(-c2cccc3cc(CNCCCC(=O)O)sc23)cc1` the same measures were 43%, 19900 nM and 2810 nM.
With `COc1ccc2cc(-c3cccc4cc(CNCCCC(=O)O)sc34)ccc2c1`, the values for the EC50 in assay [2] and in assay [3] were 1930 nM and above 100000 nM, respectively.
Consider `O=C(O)CCCNCc1cc2cc(-c3ccc4ccccc4c3)ccc2s1`, for which, in assay [1], the Efficacy was 65%. Further, the figures for the half-maximal effective concentration (EC50) in assay [2] and in assay [3] were 165 nM and 143 nM, respectively.
For `O=C(O)Cc1cccc(NCc2cc3cccc(-c4ccc5ccccc5c4)c3s2)c1` the same measures were 22%, 816 nM and 1670 nM.
With `O=C(O)Cc1cccc(NCc2cc3c(-c4ccc5ccccc5c4)cccc3s2)c1`, the Efficacy in assay [1] was 23%. In addition, the EC50 in assay [3] came to 2140 nM.
With `O=C(O)C1CN(Cc2cc3c(-c4ccc5ccccc5c4)cccc3s2)C1`, in assay [1], the Efficacy was 14%. Also, the values for the 50% effective concentration (EC50) in assay [2] and in assay [3] were 1010 nM and 175 nM, respectively.

What is called EC50 is the concentration at which the effect is half-maximal.
